# Laboratory results taken from patent US20220409586A1, “TREATMENT AND PREVENTION OF NEUROINFLAMMATION OR AN INFLAMMATORY BRAIN DISORDER” (Inflazome Limited, priority 2019, published 2022).
# Experiment: Study A: blood-brain barrier penetration, MetaQuant microdialysis of left and right striatum after oral administration
# Type: in vivo, mouse (C57Bl/6)
# Details: for average peak levels in left and right striatal dialysate: freely-moving adult male C57Bl/6 mice, corrected for dilution, not for recovery; for time of average peak levels in striatal dialysate after compound administration: mice, left and right striatum
# Experimental: The present study was designed to determine the free concentration of the compound of formula (I) in the left and right striatum of freely-moving adult male mice after oral administration.
# Adult male C57Bl/6 mice (22-28 g; Envigo, the Netherlands) were used for the experiments. Following arrival, animals were housed in groups of 5 in polypropylene cages (40×50×20 cm) with wire mesh top in a temperature (22±2° C.) and humidity (55±15%) controlled environment on a 12 hour light cycle (07.00-19.00). Following surgery, animals were housed individually (cages 30×30×40 cm). Standard diet (SDS Diets, RM1 PL) and domestic quality mains water were available ad libitum.
# Mice were anesthetized using isoflurane (2% and 500 mL/min O2). Before surgery, Finadyne (1 mg/kg, s.c.) was administered for analgesia during surgery and the post-surgical recovery period. A mixture of bupivacaine and epinephrine was used for local analgesia of the incision site.
# The animals were placed in a stereotaxic frame (Kopf instruments, USA). MetaQuant microdialysis probes with a 3 mm exposed polyacrylonitrile membrane (MQ-PAN 3/3) were implanted bilaterally into the left and right striatum (coordinates for the tip of the probe: AP=+0.8 mm (to bregma), ML=+/−1.7 mm (to midline), DV=−4.0 mm (to dura) with an angle of 0° and the incisor bar set at 0.0 mm. All coordinates were based on “The mouse brain in stereotaxic coordinates” by Paxinos and Franklin (2008). The probes were attached to the skull with a stainless-steel screw and dental cement.
# The monosodium salt of the compound of formula (I) was formulated in sterilized tap water at concentrations (with respect to the non-salt form) of 0.2 and 4 mg/mL for oral dosing at 5 mL/kg; 1 mg/kg and 20 mg/kg, respectively.
# The MetaQuant microdialysis probes were connected with flexible PEEK tubing (Western Analytical Products Inc. USA; PK005-020) to a microperfusion pump (Harvard) and perfused with a slow flow of artificial CSF (perfusate), containing 147 mM NaCl, 3.0 mM KCl, 1.2 mM CaCl2, and 1.2 mM MgCl2, at a flow rate of 0.12 μL/min and a carrier flow of UP+0.02 M FA+0.04% ascorbic acid at 0.8 μL/min. After a minimum of two hours of prestabilisation, microdialysis samples were collected in 60 minute intervals. Following collection of two baseline samples, the compound of formula (I) (1 or 20 mg/kg in sterilised tap water) was administered orally at t=0 minutes. […]
# Microdialysate samples from MetaQuant probes contained a nominal volume of 55.2 μL dialysate. Levels of the compound of formula (I) in MetaQuant microdialysate samples were quantified by LC-MS/MS. […]
# Suitable in-run calibration curves were fitted using weighted (1/x) regression and the sample concentrations were determined using these calibration curves. […]
compound,measurement,setting,value
CC(C)n1ccc(S(=O)(=O)NC(=O)Nc2c3c(cc4c2CCC4)CCC3)n1 [compound of formula (I)],average peak levels in left and right striatal dialysate,"1 mg/kg oral, at 5 hours after administration",12 to 13 nM
same,time of average peak levels in striatal dialysate after compound administration,1 mg/kg oral,5 h
same,average peak levels in left and right striatal dialysate,"20 mg/kg oral, at 6 hours after administration",201 to 243 nM
same,time of average peak levels in striatal dialysate after compound administration,20 mg/kg oral,6 h
